Test results taken from US20210269734A1, “POLYISOBUTYLENE-SUBSTITUTED PHENOL, DERIVATIVES THEREOF, AND LUBRICATING COMPOSITIONS CONTAINING THE POLYISOBUTYLENE-SUBSTITUTED PHENOL AND ITS DERIVATIVES” (The Lubrizol Corporation, priority 2016, published 2021).
Read-outs that look alike come from different tables or passages of the source.

Columns and labels:
Daphnia sp. [1] = conditions: published value, same test method; Daphnia magna, Sewell & McKenzie (2005a); cited from earlier work
Daphnia sp. [2] = conditions: OECD Test No. 202 acute immobilisation
Experimental: The polyisobutylene substituted phenol described in Example 1 was tested for Acute Ecotox Value for Invertebrate using the OECD Guidelines for the Testing of Chemicals, Test No. 202 Daphnia sp. Acute Immobilisation Test (2004). Samples of alkyl-phenols having C4 and C8 alkyl groups were compared to the Sample of Example 1. A published test value for PDDP using the same test method is also included as a comparison.

Substance: PDDP [Comparative Ex. 3]
- Acute Ecotox Value for Invertebrate daphnid (EC50) (Daphnia sp. [1]): 0.037 µg/mL

Substance: 350 Mn polyisobutylene-alkylated phenol [Example 1]
- Acute Ecotox Value for Invertebrate daphnid (EC50) (Daphnia sp. [2]): >100 µg/mL
